In one test the test system is DU-145. As to the kind of experiment: Cytotoxicity against human DU145 cells assessed as reduction in cell viability up to 100 uM after 72 hrs by CCK-8 assay. The test is classed as functional, cell-based.
In the next test the test system is HL-60. The test is described as follows: Cytotoxicity against human HL60 cells assessed as reduction in cell viability up to 100 uM after 72 hrs by CCK-8 assay. The test is classed as functional, cell-based.
Test [1] deals with HT-29. The test is described as follows: Cytotoxicity against human HT-29 cells assessed as reduction in cell viability up to 100 uM after 72 hrs by CCK-8 assay. Type of test: functional, cell-based.
In a further test the test system is HeLa. As to the kind of experiment: Cytotoxicity against human HeLa cells assessed as reduction in cell viability up to 100 uM after 72 hrs by CCK-8 assay. The test is classed as functional, cell-based.
The next test has as its system K562. As to the kind of experiment: Cytotoxicity against human K562 cells assessed as reduction in cell viability up to 100 uM after 72 hrs by CCK-8 assay. The test is classed as functional, cell-based.
In the next test the test system is MCF7. The test is described as follows: Cytotoxicity against human MCF7 cells assessed as reduction in cell viability up to 100 uM after 72 hrs by CCK-8 assay. Type of test: functional, cell-based.
The subject of test [2] is U-937. The test is described as follows: Cytotoxicity against human U937 cells assessed as reduction in cell viability up to 100 uM after 72 hrs by CCK-8 assay. Type of test: functional, cell-based.
Test [3] has as its system Influenza A virus. The test is described as follows: Antiviral activity against influenza A virus H3N2 assessed as inhibition of virus-induced cytopathic effect up to 100 uM after 48 hrs by crystal violet staining based assay. Type of test: functional, organism-based.
The test system of test [4] is Influenza A virus. The test is described as follows: Antiviral activity against influenza A virus H1N1 assessed as inhibition of virus-induced cytopathic effect up to 100 uM after 48 hrs by crystal violet staining based assay. The test is classed as functional, organism-based.
Another test has as its system A549. As to the kind of experiment: Cytotoxicity against human A549 cells assessed as reduction in cell viability up to 100 uM after 72 hrs by CCK-8 assay. The test is classed as functional, cell-based.
For a further test, the system named is RAW264.7. As to the kind of experiment: Inhibition of LPS-induced NO production in mouse RAW264.7 cells after 24 hrs by Griess assay. The test is classed as functional, cell-based. Conditions: RAW264.7, 24 h.
The test system of test [5] is HT-29. As to the kind of experiment: Cytotoxicity against human HT-29 cells assessed as reduction in cell viability after 72 hrs by CCK-8 assay. The test is classed as functional, cell-based. Conditions: HT-29, 72 h.
Test [6] has as its system U-937. As to the kind of experiment: Cytotoxicity against human U937 cells assessed as reduction in cell viability after 72 hrs by CCK-8 assay. The settings on record: U-937, 72 h. The test is classed as functional, cell-based.

Experimental findings from ChEMBL document CHEMBL4190215, “Ochracenes A-I, Humulane-Derived Sesquiterpenoids from the Antarctic Fungus Aspergillus ochraceopetaliformis” (J Nat Prod, 2017) are described below.

pIC50: −log10 of the molar value. The source made the active and inactive calls. No cut-off for these calls is given here.

Consider `C[C@H]1CC[C@@]2(C)C=CC(=O)C=C2C=C1C(=O)O`, for which the result with DU-145, in the test with HL-60, in the test with HT-29 [1], with HeLa, with K562 and in the test on MCF7 was inactive. The outcome in the test on U-937 [2] and with A549 was inactive. In addition, the inhibition entry in the test with Influenza A virus [3] and with Influenza A virus [4] was “inactive” throughout.
`CC1=CC([C@@H](CCCO)C(=O)O)=C(C)CC[C@@H]1C`: the result in the test on DU-145, in the test on HL-60, in the test with HT-29 [1], with HeLa, in the test with K562 and in the test on MCF7 was inactive. Moreover, the result in the test with U-937 [2] and in the test on A549 was inactive. In the test on RAW264.7, the pIC50 is 4.84. For the same compound, the inhibition result in the test with Influenza A virus [3] and in the test on Influenza A virus [4] was “inactive” each time.
Compound `C[C@@H]1C[C@H]2[C@@H]3CCC4=CC(=O)C=C[C@]4(C)[C@@]3(F)[C@@H](O)C[C@]2(C)[C@@]1(O)C(=O)CO` [DEXAMETHASONE] gave a pIC50 in the test with RAW264.7 of 5.60.
As for `CC(=O)O[C@H]1C(=O)[C@@]2(C)[C@H]([C@H](OC(=O)c3ccccc3)[C@]3(O)C[C@H](OC(=O)[C@H](O)[C@@H](NC(=O)c4ccccc4)c4ccccc4)C(C)=C1C3(C)C)[C@]1(OC(C)=O)CO[C@@H]1C[C@@H]2O` [PACLITAXEL], the pIC50 is 8.52 in the test on HT-29 [5] and 8.77 in the test with U-937 [6].
Take `C[C@H]1CC[C@@]2(C)C=CC(=O)C=C2C=C1CO`: the result with DU-145, in the test with HL-60, in the test with HT-29 [1], in the test with HeLa, in the test on K562 and with MCF7 was inactive. The outcome in the test with U-937 [2] and in the test with A549 was inactive. For the same compound, the inhibition result with Influenza A virus [3] and in the test on Influenza A virus [4] was “inactive” each time.
Consider `CC1=CC([C@@H](CCC(=O)O)C(=O)O)=C(C)CC[C@@H]1C`, for which the result in the test on DU-145, in the test on HL-60, in the test on HT-29 [1], with HeLa, in the test with K562 and in the test on MCF7 was inactive. Besides, the outcome in the test with U-937 [2] and with A549 was inactive. Further, the pIC50 with RAW264.7 is 4.74. Further, the inhibition entry with Influenza A virus [3] and in the test on Influenza A virus [4] was “inactive” each time.
As for `C[C@H]1CC[C@]2(C)C(=CCC[C@H]2O)C=C1C(=O)O`, the outcome with DU-145, with HL-60, with HT-29 [1], in the test on HeLa, with K562 and in the test with MCF7 was inactive. The result in the test on U-937 [2] and with A549 was inactive. Also, the inhibition entry with Influenza A virus [3] and in the test with Influenza A virus [4] was “inactive” in each case.
With `CC1=CC[C@@]2(C)[C@H](O)CC[C@@H](C(=O)O)[C@@H]2C=C1C`, the outcome in the test on DU-145, in the test with HL-60, with HT-29 [1], with HeLa, in the test on K562 and in the test with MCF7 was inactive. In addition, the result in the test with U-937 [2] and in the test on A549 was inactive. Moreover, the inhibition result with Influenza A virus [3] and in the test with Influenza A virus [4] was “inactive” throughout.
For the compound `C[C@H]1CC[C@]2(C)C(=CCC[C@H]2O)C=C1CO`, the result in the test on DU-145, in the test on HL-60, in the test on HT-29 [1], in the test on HeLa, in the test with K562 and with MCF7 was inactive. For the same compound, the result with U-937 [2] and with A549 was inactive. Also, the inhibition result in the test on Influenza A virus [3] and in the test on Influenza A virus [4] was “inactive” each time.
For `C[C@H]1CC[C@@]2(C)C=CC(=O)C=C2C=C1C=O`, the result in the test with DU-145, in the test on HL-60, with HT-29 [1], in the test on HeLa, with K562 and with MCF7 was inactive. Further, the outcome in the test with U-937 [2] and with A549 was inactive. In addition, the inhibition entry in the test on Influenza A virus [3] and in the test on Influenza A virus [4] was “inactive” in each case.
As to `COC(OC)C1=CC2=CC(=O)C=C[C@]2(C)CC[C@@H]1C`, the result with DU-145, in the test with HL-60, with HT-29 [1], in the test on HeLa, in the test on K562 and in the test on MCF7 was inactive. The result with U-937 [2] and in the test with A549 was inactive. Besides, the inhibition result in the test with Influenza A virus [3] and with Influenza A virus [4] was “inactive” throughout.
